From US20240165089A1, “METHOD FOR TREATING MYOPIA WITH VINPOCETINE” (EYE HOSPITAL, WENZHOU MEDICAL UNIVERSITY, priority 2021, published 2024)
Where “and” joins values, the source holds several entries; their conditions need not be identical. Equal entries are not always repeated.

Key:
[1] = tested on: form deprivation myopia model of guinea pigs; experiment: FDM guinea pig model, subconjunctival injection of AVA; type: in vivo; conditions: 1 week
Procedure: The modeling method for myopic individuals was the same as other embodiments of the present invention. […] No other active substances or excipients were added.

[2] = tested on: form deprivation myopia model of guinea pigs; experiment: FDM guinea pig model, subconjunctival injection, salmeterol/tiotropium/vinpocetine; conditions: 0.1% atropine, 2 weeks
Description: The form deprivation myopia model of guinea pigs described in the present invention was used to evaluate the efficacy. […] On the first day of the experiment, guinea pigs were subjected to form deprivation at 8 a.m. using a mask method, with the right eye covered (experimental eye) and the left eye uncovered (contralateral eye). Starting from the day of modeling, solvents or drugs for the corresponding groups were given to the experimental eyes at 9-10 a.m. every day by eyeball subconjunctival injection at an injection volume of 100 μL, once a day for 2 weeks. The refraction and axial parameters of the animals were detected before the start of the efficacy experiment and at the end of the experiment. All data collection and processing methods were the same as in other embodiments of the present invention. The statistical basis was the difference between the experimental eye and the contralateral eye of the same subject individual.

[3] = tested on: form deprivation myopia model of guinea pigs; experiment: FDM guinea pig model, eye drops (non-invasive administration); type: in vivo
Procedure: The purpose of this experiment was to evaluate the effect of vinpocetine on myopia through non-invasive administration. All tested drugs were formulated into eye drops. […] No other active substances or excipients were added to the above eye drops.

[4] = 0.1% atropine eye drops, 2 weeks
[5] = 0.1% atropine eye drops, 2 weeks (rounded and actual value)

SMILES	axial length difference between the eyes ([1]; AVA 1 μM) [mm]	inhibition rate for the axial length ([1]; AVA 1 μM) [%]	inhibition rate for the vitreous chamber depth ([1]; AVA 1 μM) [%]	ocular abnormalities ([1]; AVA 1 μM)	refraction inhibition rate ([1]; AVA 1 μM) [%]	vitreous chamber depth difference between the eyes ([1]; AVA 1 μM) [mm]	refraction difference between the eyes ([1]; FDM, AVA 1 μM subconjunctival 100 μL once a day) [D]	corneal curvature (RCC), anterior chamber depth (ACD) and lens thickness (LT) [2]	pupil dilation ([2]; subconjunctival)	refraction change towards negative, axial length elongation and vitreous chamber depth increase vs negative control ([2]; FDM, subconjunctival)	efficacy as positive control ([1]; 0.1% atropine subconjunctival)	pupil dilation ([1]; 0.1% atropine subconjunctival)	therapeutic effect on the guinea pig myopia model ([3]; 0.01% atropine eye drops, same administration conditions)	inhibition rate for the vitreous chamber depth [3, 4] [%]	refraction inhibition rate [3, 4] [%]	axial length difference between the eyes [3, 5]	vitreous chamber depth difference between the eyes [3, 5]	pupil dilation ([3]; 0.1% atropine eye drops, during administration)	refraction difference between the eyes (model-induced myopia) ([3]; FDM, 0.1% atropine eye drops 25 μL twice a day, 2 weeks) [D]
CC[C@@]12C=C(C(=O)O)n3c4c(c5ccccc53)CCN(CCC1)[C@H]42 [AVA, apovincaminic acid]	0.07±0.03	36.4	34.7	no ocular abnormalities were observed	39.6	0.06±0.02	−2.65±1.18	–	–	–	–	–	–	–	–	–	–	–	–
CN1[C@@H]2CC[C@H]1C[C@@H](OC(=O)C(CO)c1ccccc1)C2 (stereo partly shown) [atropine]	–	–	–	–	–	–	–	not affected by the drug	pupil dilation occurred	significantly inhibited	showed its due efficacy	Pupil dilation occurred	did not have any therapeutic effect	21.8	40.0	0.11±0.05 mm and 0.1093±0.0530 mm	0.11±0.05 mm and 0.1107±0.0502 mm	Adverse reactions of pupil dilation occurred	−3.93±1.75
